From patent US8288423B2, “FXa inhibitors with cyclic amidines as P4 subunit, processes for their preparations, and pharmaceutical compositions and derivatives thereof” (Legochem Bioscience Ltd., priority 2007, dated 2012)
≈ marks a conversion by molar mass, not a printed value. Read-outs that look alike come from different tables or passages of the source.

B1: antistasin (protein, UniProt P15358 18-136, looked up)
Antistasin: QGPFGPGCEEAGCPEGSACNIITDRCTCSGVRCRMHCPHGFQRSRYGCEFCKCRLEPMKATCDISECPEGMMCSRLTNKCDCKIDINCRKTCPNGLKRDKLGCEYCECRPKRKLIPRLS

Tests used:
[1] = target: T1, factor Xa (Homo sapiens, UniProt P00742); experiment: Inhibiting activity of factor Xa inhibitor (chromogenic substrate S-2765); assay type: biochemical; conditions: calculated from IC50 by Equation 1, Km 125 μM; S-2765 substrate, pH 7.8, 37° C.; read-out: Ki (nM), factor Xa inhibition constant
T1 construct: purchased Enzyme Research Laboratories
T1 sequence (P00742 235-488 limits assumed): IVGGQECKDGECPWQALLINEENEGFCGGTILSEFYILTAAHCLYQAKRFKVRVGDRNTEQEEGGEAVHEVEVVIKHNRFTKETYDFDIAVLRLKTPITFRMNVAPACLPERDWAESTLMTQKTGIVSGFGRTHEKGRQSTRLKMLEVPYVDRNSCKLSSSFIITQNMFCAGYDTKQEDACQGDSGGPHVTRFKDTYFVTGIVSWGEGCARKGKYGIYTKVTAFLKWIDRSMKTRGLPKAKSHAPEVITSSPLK
T1 sequence (P00742 41-179 partner limits assumed): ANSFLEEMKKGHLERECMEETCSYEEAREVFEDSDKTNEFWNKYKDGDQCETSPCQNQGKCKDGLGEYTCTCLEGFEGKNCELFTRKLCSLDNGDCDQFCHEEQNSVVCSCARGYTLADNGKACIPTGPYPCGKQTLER
Protocol: Relative rate of hydrolysis (as compared to control group without inhibition) was plotted versus logarithm of the concentration of the oxazolidinone derivative with a cyclic amidine represented by Chemical Formula (1) according to the invention, to obtain the concentration of the inhibitor for 50% decrease in the rate of hydrolysis of the substrate.
The inhibition constant can be obtained by spectrophotometry whereby the color development is determined as a function of time, after being reacted with a specific substrate which develops color upon hydrolysis caused by action of factor Xa.
For the inhibitor solution, the inhibitor compound according to the present invention was diluted with dimethylsulfoxide (DMSO) in 10 mM, and then further diluted with third-distilled water (finally 10% DMSO solution), and the solution (10 μL) was added to each well. […] The substrate solution (20 μL) thus prepared was added to each well.
Kinetic analysis of the reaction was performed by a kinetic plate reader (Molecular Devices, Spectramax 190) at 37° C. for 20 minutes.
Relative rate of hydrolysis (compared to control group without inhibition) versus logarithm of the oxazolidinone derivative with a cyclic amidine group (Chemical Formula I) was plotted to obtain the concentration of the inhibitor to decrease the rate of hydrolysis of the substrate by 50%. GraFit (version 5.0.12) program for statistical process purchased from Erithacus Software was employed.
When inhibition constant Ki is calculated, it can be calculated according to Equation (1).

[2] = test system: Citrated plasma; experiment: Measurement of PT (prothrombin time) in citrated plasma; assay type: biochemical; conditions: STA-Neoplastine, 37° C., unit not given (2×PT value)
Protocol: The effect of oxazolidinone derivatives with cyclic amidines represented by Chemical Formula (1) according to the invention on blood coagulation was compared by measuring PT (prothrombin time) and aPTT (activated Partial Thromboplastin Time). The procedure of measurement is described below. Citrated plasma was purchased from Daejeon-Chungnam Blood Institute (located at Daejeon, Korea). A compound solution (5 μL) according to the invention (in a various concentration gradient, 5% DMSO solution) was added to the plasma ([…]), and the reaction was carried out at 37° C. for 5 minutes. STA-Neoplastine (Diagnostica Stago) (100 μL) was then added thereto, and the duration for plasma coagulation was measured. The duration for plasma coagulation is determined as the point when the absorbance at 340 nm reaches 0.1.

[3] = test system: plasma; experiment: Measurement of aPTT (activated partial thromboplastin time) in plasma; assay type: biochemical; set-up: unit not given here; conditions: STA-PTT, CaCl2, 37° C., unit not given
Protocol: The effect of oxazolidinone derivatives with cyclic amidines represented by Chemical Formula (1) according to the invention on blood coagulation was compared by measuring PT (prothrombin time) and aPTT (activated Partial Thromboplastin Time). The procedure of measurement is described below. A solution (5 μL) of the oxazolidinone derivative with cyclic amidine group represented by Chemical Formula (1) according to the invention (in a various concentration gradient, 5% DMSO solution) was added to the plasma ([…]), and the reaction was carried out at 37° C. for 2 minutes. STA-PTT (Diagnostica Stago) (50 μL) was then added thereto. After the reaction at 37° C. for additional 5 minutes, 25 mM CaCl2 (50 μL) was added thereto, and the duration for plasma coagulation was measured. The duration for plasma coagulation was determined as the point when the absorbance at 340 nm reaches 0.1.

[4] = test system: thrombus formation; experiment: % inhibition against thrombus formation, arteriovenous shunt model in white rats; assay type: in vivo, white rats (male Sprague Dawley); set-up: concentration or dose not given beside the values; conditions: orally administered 1 hour before opening of the shunt; 15 minutes circulation; versus control group
Protocol: 3) Determination of % Inhibition Against Thrombus Formation by Means of Arteriovenous Shunt Model ([…]) in White Rats Antithrombotic effect of the compounds according to the present invention was evaluated by using arteriovenous shunt model in white rats. The animals used were male Sprague Dawleys with the body weight of 200-250 g. For one day before the experiment, the animals were fasted. Five to six animals were used for each test group. The compound of Example was orally administered 1 hour before opening of the shunt. The rats were anesthetized by abdominal administration of Rompun (Bay HealthCare) and Chloral hydrate or urethane in an amount of 12 and 50 mg per kg of the body weight. Into the left carotid artery and right jugular vein of the white rat, a polyethylene(PE)-60 tubing filled with physiological saline was inserted and secured. Both ends of individual PE tubing were connected to a silicone tubing having a length of 5 cm in which a cotton thread have been incorporated diagonally, and the shunt was open to provide circulation for 15 minutes. The shunt was then compressed by using jaws, and the cotton thread was carefully removed and the thrombus generated was weighed. The % inhibition of thrombus formation was calculated by using the weight of thrombus obtained from white rats of the control group to which a solution of oral administration was administered.

[5] = Determination of aqueous solubility; assay type: physicochemical; conditions: aqueous with cosolvent or surfactant or cyclodextrin, kinetic from dmso stock; 100 mM potassium phosphate buffer pH 7.4, 5% DMSO, final concentration 500 μM, ambient temperature 90 minutes
Protocol: The plate was agitated at ambient temperature for 90 minutes with a rate of 225 rpm. After agitation, the content of the plate was filtered with application of pressure. The filtrate (160 μL) was individually transferred to a uv-96 well plate (Costar), and mixed with 40 μL of acetonitrile, and then agitated at ambient temperature for 10 minutes with a rate of 225 rpm. By means of a plate reader (Molecular Devices, Spectramax 190), absorbances at the wavelengths of 280, 300, 320, 340, 360 and 800 nm were measured. As a reference solution, employed was 100 mM potassium phosphate buffer (pH 7.4) containing 20% acetonitrile added by 10 mM DMSO solution (8 μL).

[6] = test system: plasma protein; experiment: Determination of plasma protein binding (ultrafiltration, LC-MS/MS); assay type: in vitro ADME; conditions: citrated plasma, 37° C., 60 minutes, Ultracel-10 filter
Protocol: Citrated plasma was purchased from Daejeon-Chungnam Blood Institute (located at Daejeon, Korea). A compound solution (500 μM in DMSO) (10 μL), according to the invention Was added to the plasma (1 mL), and the reaction was carried out at 37° C. and 120 rpm for 60 minutes. To three wells of Ultracel-10 filter plate (Millipore), the reaction solution was transferred (300 μL each). Then, the plasma solution (70 μL) was taken, and the total concentration of the compound was quantified by means of LC-MS/MS (API3000, ABI). After centrifuging the Ultracel-10 filter plate at 37° C. and 2000×g for 45 minutes, the filtrate was taken to determine the concentration of the compound which was not bound to the plasma protein. Percentage of plasma protein binding was obtained via Equation (2): % Protein binding=(1−concentration of compound in filtrate/concentration of compound in entire solution)×100% Free=100−% Protein binding [Equation 2]

[7] = background art; cited from earlier work
[8] = target: T1, factor Xa; conditions: background art; cited from earlier work

Molecule | Ki [1] [nM] | PT [2] | APTT [3] | % Inhibition (of thrombus formation) [4] [%] | solubility at 90 min [5] [µM] | Plasma protein binding (% Free) [6] [% Free] | solubility [7] | Ki [8] [nM]
O=C(NC[C@H]1CN(c2ccc(C3=NCCN3)cc2)C(=O)O1)c1ccc(Cl)s1 [Compound 100, 5-chlorothiophene-2-carboxylic acid {(S)-3-[4-(4,5-dihydro-1H-imidazol-2-yl)-phenyl]-2-oxo-oxazolidin-5-ylmethyl}-amide] | 47 | 0.22 | 2.29 | 40 | 441 (≈ 179 µg/mL) | 17 |  | 
CN1CCN=C1c1ccc(N2C[C@H](CNC(=O)c3ccc(Cl)s3)OC2=O)cc1 [Compound 101, 5-chlorothiophene-2-carboxylic acid {(S)-3-[4-(1-methyl-4,5-dihydro-1H-imidazol-2-yl)-phenyl]-2-oxo-oxazolidin-5-ylmethyl}-amide] | 2.97 | 0.05 | 0.22 | 2 | 434 (≈ 182 µg/mL) | 23 |  | 
CCN1CCN=C1c1ccc(N2C[C@H](CNC(=O)c3ccc(Cl)s3)OC2=O)cc1 [Compound 102, 5-chlorothiophene-2-carboxylic acid {(S)-3-[4-(1-ethyl-4,5-dihydro-1H-imidazole-2-yl)-phenyl]-2-oxo-oxazolidin-5-ylmethyl}-amide] | 3.43 | 0.04 | 0.17 | 26 | 462 (≈ 200 µg/mL) | 28 |  | 
CN1CCCN=C1c1ccc(N2C[C@H](CNC(=O)c3ccc(Cl)s3)OC2=O)cc1 [Compound 107, 5-chlorothiophene-2-carboxylic acid {(S)-3-[4-(1-methyl-1,4,5,6-tetrahydropyrimidine-2-yl)-phenyl]-2-oxo-oxazolidin-5-ylmethyl}-amide] | 5.7 | 0.09 | 0.28 | 50 | 411 (≈ 178 µg/mL) | 31 |  | 
O=C(NC[C@H]1CN(c2ccc(N3CCN=C3C3CC3)cc2)C(=O)O1)c1ccc(Cl)s1 [Compound 117] | 3.18 | 0.04 | 0.29 | 68 | 484 (≈ 215 µg/mL) | 17 |  | 
O=C(NC[C@H]1CN(c2ccc(N3CCN=C3c3ccco3)cc2)C(=O)O1)c1ccc(Cl)s1 [Compound 123] | 0.39 | 0.07 | 0.26 | 71 | 474 (≈ 223 µg/mL) | 3 |  | 
CC1=NCCN1c1ccc(N2C[C@H](CNC(=O)c3ccc(Br)s3)OC2=O)cc1 [Compound 138] | 2.38 | 0.04 | 0.16 | 27 |  |  |  | 
O=C(NC[C@H]1CN(c2ccc(N3CCN=C3c3ccco3)cc2)C(=O)O1)c1ccc(Br)s1 [Compound 139] | 1.47 | 0.07 | 0.47 | 60 |  |  |  | 
CCC1=NCCCN1c1ccc(N2C[C@H](CNC(=O)c3ccc(Cl)s3)OC2=O)cc1 [Compound 142] | 2.52 | 0.04 | 0.17 | 47 |  |  |  | 
O=C(NC[C@H]1CN(c2ccc(N3CCOCC3=O)cc2)C(=O)O1)c1ccc(Cl)s1 [Rivaroxaban, reference compound] |  | 0.09 | 0.39 | 83 | 50 (≈ 21.8 µg/mL) | 9 | about 8 mg/L | 
tick anticoagulant peptide (YNRLCIKPRDWIDECDSNEGGERAYFRNGKGGCDSFWICPEDHTGADYYSSYRDCFNACI; UniProt P17726 1-60, looked up) [TAP] |  |  |  |  |  |  |  | 0.5
B1 |  |  |  |  |  |  |  | 0.05
